Laboratory results reported in patent US10561703B2, “Method of modulating sex hormone levels using a sex hormone secretion modulator” (GEMVAX & KAEL CO., LTD., priority 2013, dated 2020).

System: GnRH mRNA
Assay: Relative GnRH mRNA expression in serum, real-time qPCR
Assay type: in vivo, Sprague-Dawley (SD) rats
Details: 100 mg/kg sc, 4 hr post-administration, Day 1
Procedure: Sprague-Dawley (SD) rats were obtained from Orient Bio (Gyronggi-do, South Korea), and seven-week-old rats were used for the study. Rat were administered by subcutaneous (sc) injection of PEP-1 (100 mg/kg) twice (at Day 1 and at Day 7) during the seven day study period. Blood samples (1.4 mL) were collected at Day 0 (before the administration of PEP-1), at Day 1 (4 hr and 8 hr post injection), and at Day 7 (4 hr post injection). Serum samples obtained from the blood were used for the experiment. Serum samples prepared from the blood collected at Day 1 (4 hr post injection) were used for the experiment. The animal care and procedures were approved and in accordance with the Korea Animal Medical Science Institute (KAMSI) IACUC.
RNA isolation and cDNA synthesis from the serum samples. The external control, miRNeasy Serum/Plasma Spike-In Control was added in each serum sample prior to the RNA extraction. […]
Real-time qPCR was performed using the RT2 SYBR Green qPCR Mastermix kit (Qiagen) with a CFX96 Real-Time System (Bio-Rad, Hercules, Calif., USA). Data was analyzed by CFX Manager™ Software V3.0 using the ΔΔCt method.
Rat serum samples obtained from the blood collected at 4 hr post-administration of PEP-1 (100 mg/kg) on the 1st day of the experiment were analyzed for the mRNA expression of gonadotropin-releasing hormone (GnRH). […]

For “EARPALLTSRLRFIPK (listed as Homo sapiens) [PEP-1, hormone secretion modulator / GnRH analog]”, the “Relative GnRH mRNA expression in serum” value (female rats) was “increased the relative GnRH mRNA expression” and the “Relative GnRH mRNA expression in serum” value (male rats) was “increased the relative GnRH mRNA expression”.
